From patent US20220265817A1, “THERAPEUTIC COMPOSITIONS AND METHODS FOR TREATING HEPATITIS B” (priority 2017, published 2022) come the findings set out here.

Data set [1] has as its system hepatitis B virus (HBV). In words: Mouse model of HBV (pAAV/HBV1.2 hydrodynamic injection), serum HBsAg enzyme immunoassay. The following applies: HBV siRNA 1 mg/kg IV Days 0, 7, 14, poly(I:C) 20 μg HDI Day 0, mean ± SEM. It counts as in vivo, C3H/HeN mice. The text has this: A mouse model of hepatitis B virus (HBV) was used to assess the anti-HBV effects of an immune stimulant and HBV-targeting siRNAs, both as independent treatments and in combination with each other.
This plasmid carries a 1.2-fold overlength copy of a HBV genome and expresses HBV surface antigen (HBsAg) amongst other HBV products. Serum HBsAg expression in mice was monitored using an enzyme immunoassay. Animals were sorted (randomized) into groups based on serum HBsAg levels such that a) all animals were confirmed to express HBsAg and b) HBsAg group means were similar to each other prior to initiation of treatments.
Animals were treated with immune stimulant as follows: On Day 0, 20 micrograms of high molecular weight polyinosinic:polycytidylic acid (poly(I:C)) was administered via HDI. Animals were treated with lipid nanoparticle (LNP)-encapsulated HBV-targeting siRNAs as follows: On each of Days 0, 7 & 14, an amount of test article equivalent to 1 mg/kg siRNA was administered intravenously. A negative control group was included as the HBsAg expression level is not completely stable in this mouse model of HBV; the absolute concentration of serum HBsAg generally declines over time in individual animals.
The effect of the treatments was determined by collecting a small amount of blood on Days 0 (pre-treatment), 3, 7, 14 & 21 and analyzing it for serum HBsAg content. Samples were diluted as appropriate to generate values within the assay range of quantitation where possible. Individual values falling below the lower limit of quantitation (LLOQ) were set as one-half the LLOQ.

Data set [2] relates to hepatitis B virus (HBV). In words: Mouse model of HBV (AAV1.2 tail vein injection), serum HBsAg enzyme immunoassay. The data set is classed as in vivo, C57/B16 mice. Conditions: Compound 20 3.0 mg/kg oral twice daily Days 0-28, HBV siRNA (LNP) 0.3 mg/kg IV Day 0, n=5 (n=4 vehicle + siRNA). As for the experimental part: This viral vector contains a 1.2-fold overlength copy of the HBV genome and expresses HBV surface antigen (HBsAg) amongst other HBV products. Serum HBsAg expression in mice was monitored using an enzyme immunoassay. Animals were sorted (randomized) into groups based on serum HBsAg levels such that a) all animals were confirmed to express HBsAg and b) HBsAg group means were similar to each other prior to initiation of treatments.
Animals were treated with Compound 20 as follows: Starting on Day 0, a 3.0 mg/kg dosage of Compound 20 was administered orally to animals on a twice-daily frequency for a total of 56 doses between Days 0 and 28. Compound 20 was dissolved in a co-solvent formation for administration. Negative control animals were administered either the co-solvent formulation alone, or were not treated with any test article. Animals were treated with lipid nanoparticle (LNP)-encapsulated HBV-targeting siRNAs as follows: On Day 0, an amount of test article equivalent to 0.3 mg/kg siRNA was administered intravenously. The HBsAg expression levels for each treatment were compared against the Day 0 (pre-dose) values for that group.
The effect of these treatments was determined by collecting blood on Days 0 (pre-treatment), 7, 14, and 28 and analyzing it for serum HBsAg content.

Data set [3] relates to HBsAg secretion in HepG2.2.15 cells. In words: HepG2.2.15 cell culture system, HBsAg quantitation by CLIA, MacSynergy II. The data set is classed as cell-based, human hepatoblastoma HepG2 cells. The following applies: for Additive % Inhibition versus negative control: Trial 3, n = 4, SIRNA-NP μM: 0.0025, 0.00079, 0.00025, 7.9E−05, 2.5E−05, 0. How it is done:
In vitro combination studies were conducted using the method of Prichard and Shipman (Prichard M N, and Shipman C Jr., Antiviral Research, 1990, 14 (4-5), 181-205; and Prichard M N, et. al., MacSynergy II). The HepG2.2.15 cell culture system is a cell line derived from human hepatoblastoma HepG2 cells that have been stably transfected with the adw2-subtype HBV genome as previously explained in Sells et al. (Proc. Natl. Acad. Sci. U. S. A, 1987. Vol 84:1005-1009). HepG2.2.15 cells secrete Dane-like viral particles, produce HBV DNA, and also produce the viral proteins, hepatitis B e antigen (HBeAg) and hepatitis B surface antigen (HBsAg).
To test the compound combinations, HepG2.2.15 (30,000 cells/well) were plated in 96 well tissue-culture treated microtiter plates in RPMI+L-Glutamine medium supplemented with 1% penicillin-streptomycin, 20 μg/mL geneticin (G418), 10% fetal bovine serum, and incubated in a humidified incubator at 37° C. and 5% CO2 overnight. […] […] The microtiter cell plates were incubated for a duration of 6 days in a humidified incubator at 37° C. and 5% CO2.
(§1) Untreated positive control samples (0.5% DMSO in media) were included on each plate in multiple wells. Following a 6 day-incubation, media was removed from treated cells for use in an HBsAg chemiluminescence immunoassay (CLIA) (Autobio Diagnostics, Cat No. CL0310-2). An HBsAg standard curve was generated to verify that the levels of HBsAg quantification were within the detection limits of the assay. The remaining inhibitor-treated cells were assessed for cytotoxicity by determination of the intracellular adenosine triphosphate (ATP) using a Cell-Titer Glo reagent (Promega) as per manufacturers instructions and by microscopic analysis of the cells throughout the duration of inhibitor treatment. Cell viability was calculated as a percentage of the untreated positive control wells.
The plates were read using an EnVision multimode plate reader (PerkinElmer Model 2104). […] The RLU data from the single compound treated cells were analyzed using XL-Fit module in Microsoft Excel to determine EC50 values using a 4-parameter curve fitting algorithm.

A further data set deals with HepG2.2.15 cells. In words: HepG2.2.15 cytotoxicity (intracellular ATP, Cell-Titer Glo; microscopy). The data set is classed as cell-based, human hepatoblastoma HepG2 cells. Conditions: Trial 3, SIRNA-NP μM: 0.0025, 0.00079, 0.00025, 7.9E−05, 2.5E−05, 0. As for the experimental part:
as §1

As to “polyinosinic:polycytidylic acid [Poly(I:C)]”, the “Serum HBsAg, % of individual pre-treatment baseline (Day 0)” value in the data set with hepatitis B virus (HBV) [1] (Day 3, n=4 or 5) is 6.1 ± 1.1%; with hepatitis B virus (HBV) [1] (Day 7), 3.5 ± 1.1%; with hepatitis B virus (HBV) [1] (Day 14), 3.9 ± 1.4%; in the data set with hepatitis B virus (HBV) [1] (Day 21), 4.7 ± 2.3%.
`COCCCOc1cc2c(cc1OC)-c1cc(=O)c(C(=O)O)cn1[C@H](C(C)C)C2` [Compound 20]: the “serum HBsAg as percentage of pre-treatment baseline at Day 0 (mean ± SEM)” value in the data set on hepatitis B virus (HBV) [2] (D 7) turned out to be 7 ± 1%; in the data set with hepatitis B virus (HBV) [2] (D 14), 8 ± 2%; in the data set with hepatitis B virus (HBV) [2] (D 21), 7 ± 2%; in the data set on hepatitis B virus (HBV) [2] (D 28), 8 ± 2%.
Regarding `COCCCOc1cc2c(cc1OC)-c1cc(=O)c(C(=O)O)cn1[C@H](C(C)C)C2` [Compound 5], the EC50 in data set [3] (HBsAg by CLIA, trial by row: r8 1, r9 2, r10 3, read-out: Compound 5 EC50) is 2 nM. The “Additive % Inhibition versus negative control” value is 69.99% in data set [3] (Compound 5 0.0001 μM); 82.39% in data set [3] (Compound 5 0.000316 μM); 89.01% in data set [3] (Compound 5 0.001 μM); 90.26% in data set [3] (Compound 5 0.00316 μM); 86.26% in data set [3] (Compound 5 0.1 μM); 46.36% in data set [3] (Compound 5 1.0E−05 μM). The “Additive % Inhibition versus negative control” value in data set [3] (Compound 5 1.00E−06 μM) is on record as 22.68%; in data set [3] (Compound 5 3.16E−06 μM), 34.18%; in data set [3] (Compound 5 3.17E−05 μM), 56.34%. The “Avg % Cell Viability vs control” value in the data set on HepG2.2.15 cells (Compound 5 0.0001 μM) came out at 128%; in the data set on HepG2.2.15 cells (Compound 5 0.000316 μM) it was 131%; in the data set on HepG2.2.15 cells (Compound 5 0.001 μM), 141%; in the data set with HepG2.2.15 cells (Compound 5 0.00316 μM) it was 127%; in the data set on HepG2.2.15 cells (Compound 5 0.1 μM), 99%; in the data set with HepG2.2.15 cells (Compound 5 1.0E−05 μM), 140%. For the same molecule, the “Avg % Cell Viability vs control” value is given as 131% with HepG2.2.15 cells (Compound 5 1.00E−06 μM), 127% with HepG2.2.15 cells (Compound 5 3.16E−06 μM) and 131% in the data set on HepG2.2.15 cells (Compound 5 3.17E−05 μM).

The term EC50 denotes the concentration giving half of the maximal effect.
